# Test system: rat platelet aggregation
# Assay: Ex-vivo rat platelet aggregation induced by arachidonic acid after oral treatment (Born's method, PRP)
# Assay type: in vivo
# Settings: for % aggregation upon addition of 1 mM arachidonic acid: rat PRP, mean, n = 8; for reduction in platelet aggregation (in words): 1 mM arachidonic acid
# Method: A study was carried out to assess the effect of a combination of a fibrate (fenofibrate) and aspirin on platelet aggregation in this study, fenofibrate and aspirin were co-administered to rats by the oral route (p.o.) and the effects on arachidonic acid-induced platelet aggregation were observed.
# 40 male OFA-SD (IOPS Caw) rats (C.River, France), weighing in the target range of 300 to 350 g, were included in the study.
# They were housed in a temperature (19.5-24.5° C.) and relative humidity (45-65%) controlled room with a 12-h light/dark cycle, with ad libitum access to filtered tap-water and standard pelleted laboratory chow (SAFE, France) throughout the study. Upon receipt at animal facilities, they were housed 4 per cage and at least a 5-day acclimatization period was observed. Animals were individually identified on the tail.
# The animals of this study were split into 5 groups of 8 animals as follows:
# Group 2: Fenofibrate, 300 mg/kg, p.o.×10 days
# Group 3 Aspirin 3 mg/kg, p.o.×1 day
# Group 4: Fenofibrate, 300 mg/kg, p.o×10 days+Aspirin 3 mg/kg, p.o.×1 day
# Group 5: Aspirin 30 mg/kg, p.o.×1 day
# At the end of the acclimatization period, rats were identified on the tail and divided into 10 boxes of 4 rats.
# They were then weighed and treated orally once a day during ten consecutive days with the vehicle (1% methylcellulose aqueous solution) or the test substance fenofibrate. On the last day of treatment, the animals were also treated with aspirin as described above. Aspirin (acetyl saliclylic acid) was obtained from Sigma, France and fenofibrate was supplied by Laboratoires Fournier, France. Test substances and the vehicle were administered by p.o. route once a day, in a volume of 5 ml/kg adjusted to the animal weight measured every day before administration.
# On the last day of treatment (day 10), 2 hours after the oral gavage, rats were anaesthetised with isoflurane, and blood samples were collected from the abdominal aorta into plastic tubes containing heparin.
# PRP (platelet-rich plasma) was then produced by centrifuging the blood obtained at 250 g for 10 minutes using a GPKR centrifuge (Beckman, France). Then samples were then centrifuged again at 2000 g for 10 minutes to obtain the platelet-poor plasma (PPP).
# After a platelet count, each PRP sample was adjusted to 6×10^8 platelets/mL with the needed volume of homologous PPP (using T540 Cell Counter, Beckman, France).
# Platelet aggregation was recorded using Born's method (Born, Nature, 1962, 194, 927-929) with 0.3 mL of the platelet suspension in disposable glass cuvettes placed in the turbidometric aggregometer (Chrono-Dual 440 aggregometer, Beckman Coulter, France) and stirred at 1100 rev.min^−1 at 37° C.
# Platelet aggregation was induced by Arachidonic acid [AA] for each PRP sample tested.
# Results were reported as the aggregation amplitude measured in mm and expressed as percentage of maximal aggregation.
# Statistical analysis consisted in a one-way analysis of variance followed by multiple comparisons versus the vehicle group (Dunnett's test) on % aggregation values. Where the equal variance test failed, a Kruskall-Wallis one-way analysis of variance on ranks was proposed. A difference is considered significant for p<0.05.
SMILES,"% aggregation upon addition of 1 mM arachidonic acid (Aspirin 3 mg/kg p.o. x 1 day, blood 2 h after gavage) [%]","% aggregation upon addition of 1 mM arachidonic acid (Aspirin 30 mg/kg p.o. x 1 day, p < 0.05 vs Control) [%]",reduction in platelet aggregation (in words) (aspirin alone at 3 mg/kg),"% aggregation upon addition of 1 mM arachidonic acid (Fenofibrate 300 mg/kg p.o. x 10 days, blood 2 h after last gavage) [%]",reduction in platelet aggregation (in words) (fenofibrate alone (300 mg/kg))
"CC(=O)Oc1ccccc1C(=O)O [Aspirin, Acetylsalicylic acid]",85.0,0.4,no reduction in platelet aggregation,,
"CC(C)OC(=O)C(C)(C)Oc1ccc(C(=O)c2ccc(Cl)cc2)cc1 [Fenofibrate, 2-[4-(4-chlorobenzoyl)phenoxy]-2-methyl-propanoic acid, 1-methylethyl ester]",,,,94.2,no reduction in platelet aggregation
